Data from patent US7786097B2, “Tricyclic compounds, compositions and methods” (Pfizer Inc., priority 2007, dated 2010).
Counter-ions that a name gives are not always drawn. Like-named read-outs stand apart in the source and are kept apart here.

What was measured:
Serum osteocalcin = Serum osteocalcin suppression, 28-day repeat dose mouse model; type: in vivo, Swiss Webster female mice; details: mice, oral gavage 28 days, serum osteocalcin
Procedure: (§1) The compounds were weighed and suspended in a vehicle of 0.5% methylcellulose/0.025% tween 20 (Sigma-Aldrich, St. Louis, Mo.). Compound suspensions were homogenized using a Polytron PT-3100 tissue homogenizer to create a very fine suspension and were then sonicated for 10 minutes using a water bath sonicator. Aliquots of each suspension were made for daily dosing at 0.2 ml/dose. Swiss Webster female mice, 10-12 weeks old, 28-29 grams, (Taconic, Germantown, N.Y.) were used in accordance with the guidelines of the Institutional Animal Care and Use Committee and in accordance with NIH guidelines on laboratory animal welfare. Mice were acclimated in the Pfizer animal facility for three to seven days prior to being utilized in a study. […] Each treatment group contained 5-10 mice. To establish a dosing regimen for the studies, a pilot pharmacodynamic time course experiment was conducted to quantify TNFα repression after a single ED80 dose.
(§2) Body weights were measured on the first and last day of each experiment. Blood samples were obtained after three weeks of dosing for a steady-state pharmacokinetic (PK) analysis. To assess compound effects on LPS-induced TNFα, all mice received an intraperitoneal injection of LPS (Salmonella typhosa, L-7895; Sigma-Aldrich, St. Louis) 2.5 hr after the last dose on day 28. Mice were sacrificed 90 minutes after LPS administration. Serum samples were quantified for osteocalcin and TNFα using the multiplex assays (Linco Research, Inc, St. Charles, Mo.; Luminex 100, Austin, Tex.). Samples were diluted 1:20 and the assay was run according to manufacturer's instructions. The osteocalcin standard was purchased separately (Biomedical Technologies Inc., Stoughton, Mass.). Mice were fasted for 4 hours before serum was collected for TNFα, and osteocalcin levels. For each experiment, outliers were detected by calculating the number of standard deviations from the mean of the group. If the value being examined was more than 2.5 standard deviations from the mean, it was excluded from the rest of the calculations.
(§3) The individual mouse percent inhibition values were fit to a four-parameter logistic model using the dose mean for each group.
(§4) ED50 and ED80 values were obtained for the various endpoints using a four-parameter logistic fit. For compounds which were tested multiple times, ED50 and ED80 values were obtained using four-parameter logistic fits of the combined data from multiple experiments.

[1] = system: Mouse Collagen-Induced Arthritis (mCIA); experiment: Therapeutic mouse collagen-induced arthritis (mCIA) model; type: in vivo, Male DBA/J mice; details: Mus musculus, mice, dosing day 34 through day 49; for ED80: read-out: Therapeutic mCIA (ED80 dose)
Excerpt: Mouse Collagen-induced arthritis is a commonly used chronic, preclinical model of rheumatoid arthritis in which joint swelling and bone destruction occur following immunization with type II collagen. Reduction of disease incidence and severity has been shown previously to be predictive of disease-modification and signs and symptoms mitigation, respectively, in a clinical setting.
In the therapeutic mCIA model, induction of disease incidence and severity was synchronized via LPS stimulation. Male DBA/J mice were immunized with 100 ug of bovine type II collagen (bCII) on day 0. All mice received an intraperitoneal injection of 20 μg of LPS on day 28 and disease was allowed to develop through day 34. At day 34, all mice had disease (incidence=100%) with an average severity score of seven. Dosing of compounds was initiated in the therapeutic mode on day 34 and continued through day 49. Different treatments were compared by measuring the decrease in incidence (i.e., resolution of disease) and the decrease in severity of paw swelling over time.

LPS-induced serum TNFα = LPS-induced serum TNFα suppression, 28-day repeat dose mouse model; type: in vivo, Swiss Webster female mice; details: Mus musculus, 672 h, mice, oral gavage 28 days
Procedure: as §1, §2, §3, §4

[2] = target: T1, full-length glucocorticoid (GR) protein (Homo sapiens, UniProt P04150); experiment: Glucocorticoid receptor fluorescence polarization ligand binding (GRFP) assay
T1 construct: purchased Invitrogen
T1 sequence (P04150 1-777): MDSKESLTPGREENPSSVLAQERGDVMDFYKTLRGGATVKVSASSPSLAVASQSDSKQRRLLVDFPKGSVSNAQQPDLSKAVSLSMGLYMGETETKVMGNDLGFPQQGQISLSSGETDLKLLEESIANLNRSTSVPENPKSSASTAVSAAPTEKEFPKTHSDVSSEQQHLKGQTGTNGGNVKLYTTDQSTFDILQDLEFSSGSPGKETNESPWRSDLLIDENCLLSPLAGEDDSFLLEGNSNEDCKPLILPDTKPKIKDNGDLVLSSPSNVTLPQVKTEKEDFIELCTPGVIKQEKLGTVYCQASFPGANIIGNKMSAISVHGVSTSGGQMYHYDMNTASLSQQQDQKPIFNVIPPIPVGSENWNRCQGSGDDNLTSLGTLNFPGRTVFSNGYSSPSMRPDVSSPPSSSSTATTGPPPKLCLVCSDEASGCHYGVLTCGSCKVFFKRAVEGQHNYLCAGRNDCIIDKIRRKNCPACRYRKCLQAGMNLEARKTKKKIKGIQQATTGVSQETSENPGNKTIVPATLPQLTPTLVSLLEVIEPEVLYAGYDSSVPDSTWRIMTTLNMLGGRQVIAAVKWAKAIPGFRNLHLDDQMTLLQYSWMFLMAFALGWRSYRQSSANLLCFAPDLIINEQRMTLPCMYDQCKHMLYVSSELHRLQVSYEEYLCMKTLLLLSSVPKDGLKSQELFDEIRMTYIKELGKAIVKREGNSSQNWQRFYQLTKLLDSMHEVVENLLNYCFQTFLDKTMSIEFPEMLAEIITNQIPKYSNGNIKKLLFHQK
Excerpt: GRFP: Glucocorticoid Receptor Binding
The glucocorticoid receptor fluorescence polarization ligand binding (GRFP) assay is used to evaluate direct binding of testing compounds to full-length glucocorticoid (GR) protein. Reagents for this assay are purchased from Invitrogen in a test kit. A fluorescent labeled GR ligand is used as a fluorescent tracer and test compounds compete with the fluorescent tracer for GR binding. The change in polarization value in the presence of test compounds is due to binding of test compounds to (GR) and is used to determine IC50 and relative binding affinity of test compounds for GR.

[3] = Solubility and intrinsic dissolution; type: physicochemical; details: compared with Example 1
[4] = system: IL-6 levels in Human A549 lung epithelial cells; experiment: IL-1β-stimulated IL-6 in A549 cells; type: cell-based; details: additional results (footnote a)
Procedure: IL-6 IC50 and % Inhibition
Human A549 lung epithelial cells (American Type Culture Collection, Rockville, Md.) were cultured in Kaighn's F-12K medium with penicillin-streptomycin (10 U/mL) and 10% heat-inactivated fetal bovine serum (all from Invitrogen, Grand Island, N.Y.). A549 cells were plated at a density of 30,000 cells/well in 96-well plates and incubated overnight at 37° C. and with 5% CO2. The cells were serum-starved by replacing the growth medium with serum-free Kaighn's F-12K medium with penicillin-streptomycin (10 U/mL) and, again, incubating overnight at 37° C. and with 5% CO2. On the third day, the medium was replaced with fresh serum-free medium and the cells were incubated with or without compound (vehicle was DMSO at 0.1% maximum concentration) for approximately 1 hour and then stimulated with 1 ng/mL recombinant human IL-1β (R&D Systems, Minneapolis, Minn.) for 20 hours at 37° C. and with 5% CO2. Cell supernatants were collected for determination of IL-6 levels using MSD (Meso Scale Discovery, Gaithersburg, Md.) 96-well Single Spot plates as per the manufacturer's instructions. Plates were read with an MSD Sector Imager 6000. […] Vehicle was used to define the 0% inhibition control. Percent inhibition for each compound concentration, relative to these controls, was calculated using Excel (Microsoft, Redmond, Wash.). […]

IC50 ([2]; additional results (footnote a))	Compound	Osteocalcin Suppression (ED80 dose) (Serum osteocalcin)	ED80 [1]	ED80 (LPS-induced serum TNFα)	IC50 [2]	ED50 ([1]; read-out: Therapeutic mCIA (ED50 dose))	solubility and intrinsic dissolution [3]	IL-6 % Inhibition [4]
	Cc1ncccc1NC(=O)c1ccc2c(c1)C(=O)C[C@@H]1C[C@@](O)(C(F)(F)F)CC[C@@]21Cc1ccccc1 [Comparator E]	1.71 mg/kg	2.6 mg/kg	1.18 mg/kg	1.18 nM			
	Cc1cnc(NC(=O)c2ccc3c(c2)CC[C@@H]2C[C@@](O)(C(F)(F)F)CC[C@@]32Cc2ccccc2)c(C)n1 [Comparator B, (4βS,7R,8αR)-4β-benzyl-N-(3,5-dimethylpyrazin-2-yl)-7-hydroxy-7-(trifluoromethyl)-4β,5,6,7,8,8α,9,10-octahydrophenanthrene-2-carboxamide]	>10 mg/kg	> 10 mg/kg	2.91 mg/kg	0.35 nM			
	Cc1ncccc1NC(=O)c1ccc2c(c1)[C@H](O)C[C@@H]1C[C@@](O)(C(F)(F)F)CC[C@@]21Cc1ccccc1 [Comparator F, (4βS,7R,8αR,10R)-4β-benzyl-7,10-dihydroxy-N-(2-methylpyridin-3-yl)-7-(trifluoromethyl)-4β,5,6,7,8,8α,9,10-octahydrophenanthrene-2-carboxamide]	>10 mg/kg	> 10 mg/kg	5.67 mg/kg	1.9 nM			
	Cc1ncccc1NC(=O)c1ccc2c(c1)C=C[C@@H]1C[C@@](O)(C(F)(F)F)CC[C@@]21Cc1ccccc1 [Comparator I, (4βS,7R,8αR)-4β-benzyl-7-hydroxy-N-(2-methylpyridin-3-yl)-7-(trifluoromethyl)-4β,5,6,7,8,8α-hexahydrophenanthrene-2-carboxamide]	>20 mg/kg	> 20 mg/kg	5.45 mg/kg	9.12 nM			
	Cc1ncccc1NC(=O)c1ccc2c(c1)CC[C@@H]1C[C@@](O)(CCC(F)(F)F)CC[C@@]21Cc1ccccc1 [Comparator C, (4βS,7S,8αR)-4β-benzyl-7-hydroxy-N-(2-methylpyridin-3-yl)-7-(3,3,3-trifluoropropyl)-4β,5,6,7,8,8α,9,10-octahydrophenanthrene-2-carboxamide]		> 10 mg/kg	1.33 mg/kg	1.22 nM			
	Cc1ncccc1NC(=O)c1ccc2c(c1)CC[C@@H]1C[C@@](OC(=O)OCC(C)C)(C(F)(F)F)CC[C@@]21Cc1ccccc1 [Comparator K, (2R,4αS,10αR)-4-benzyl-7-((2-methylpyridin-3-yl)carbamoyl)-2-(trifluoromethyl)-1,2,3,4,4α,9,10,10α-octahydrophenanthren-2-yl isobutyl carbonate]				895 nM			
	Cc1ncccc1CNC(=O)c1ccc2c(c1)CC[C@@H]1C[C@@](O)(CCC(F)(F)F)CC[C@@]21Cc1ccccc1 [Comparator A, (4βS,7S,8αR)-4β-benzyl-7-hydroxy-N-((2-methylpyridin-3-yl)methyl)-7-(3,3,3-trifluoropropyl)-4β,5,6,7,8,8α,9,10-octahydrophenanthrene-2-carboxamide]				7.1 nM			
	Cc1ncccc1NC(=O)c1ccc2c(c1)CC[C@@H]1C[C@@](O)(C(F)F)CC[C@@]21Cc1ccccc1 [Comparator H, (4βS,7R,8αR)-4-benzyl-7-(difluoromethyl)-7-hydroxy-N-(2-methylpyridin-3-yl)-4β,5,6,7,8,8α,9,10 octahydrophenanthrene-2-carboxamide]			0.72 mg/kg	8.03 nM			
	Cc1ncccc1NC(=O)c1ccc2c(c1)CC[C@@H]1C[C@@](O)(C(F)(F)F)CC[C@@]21Cc1ccccc1 [Example 1 HCL salt]				1.31 nM			
	Cc1c(NC(=O)c2ccc3c(c2)CC[C@@H]2C[C@@](O)(C(F)(F)F)CC[C@@]32Cc2ccccc2)ccc[n+]1[O-] [Comparator G]	7.27 mg/kg	3 mg/kg	3.33 mg/kg		0.6 mg/kg		
	Cc1ncc(NC(=O)c2ccc3c(c2)CC[C@@H]2C[C@@](O)(CCC(F)(F)F)CC[C@@]32Cc2ccccc2)c(C)n1 [Comparator J]		> 20 mg/kg	0.79 mg/kg	4.58 nM			
	Cc1ccncc1NC(=O)c1ccc2c(c1)CC[C@@H]1C[C@@](O)(C(F)(F)F)CC[C@@]21Cc1ccccc1 [Comparator D, (4βS,7R,8αR)-4β-benzyl-7-hydroxy-N-(4-methylpyridin-3-yl)-7-(trifluoromethyl)-4β,5,5,7,8,8α,9,10-octahydrophenanthrene-2-carboxamide]			> 20 mg/kg	2.06 nM			
42 nM	Cc1ncccc1NC(=O)c1ccc2c(c1)CC[C@@H]1C[C@@](OP(=O)(O)O)(C(F)(F)F)CC[C@@]21Cc1ccccc1 [Example 2, (2R,4αS,10αR)-4α-benzyl-7-((2-methylpyridin-3-yl)carbamoyl)-2-(trifluoromethyl)-1,2,3,4,4α,9,10,10α-octahydrophenanthren-2-yl dihydrogen phosphate]				79 nM		enhanced solubility and intrinsic dissolution	80%
